The values below come from paper PMC4076210, “Discovery of Novel AKT Inhibitors with Enhanced Anti-Tumor Effects in Combination with the MEK Inhibitor” (PLoS ONE, 2014).

Read-outs that look alike come from different tables or passages of the source.

What all share (assay): Kinase panel
Holding throughout (format): biochemical

One experiment deals with T1, EphA3(h) (Homo sapiens, UniProt P29320).
T1 construct: purchased Millipore KinaseProfiler
T1 sequence (P29320 21-983): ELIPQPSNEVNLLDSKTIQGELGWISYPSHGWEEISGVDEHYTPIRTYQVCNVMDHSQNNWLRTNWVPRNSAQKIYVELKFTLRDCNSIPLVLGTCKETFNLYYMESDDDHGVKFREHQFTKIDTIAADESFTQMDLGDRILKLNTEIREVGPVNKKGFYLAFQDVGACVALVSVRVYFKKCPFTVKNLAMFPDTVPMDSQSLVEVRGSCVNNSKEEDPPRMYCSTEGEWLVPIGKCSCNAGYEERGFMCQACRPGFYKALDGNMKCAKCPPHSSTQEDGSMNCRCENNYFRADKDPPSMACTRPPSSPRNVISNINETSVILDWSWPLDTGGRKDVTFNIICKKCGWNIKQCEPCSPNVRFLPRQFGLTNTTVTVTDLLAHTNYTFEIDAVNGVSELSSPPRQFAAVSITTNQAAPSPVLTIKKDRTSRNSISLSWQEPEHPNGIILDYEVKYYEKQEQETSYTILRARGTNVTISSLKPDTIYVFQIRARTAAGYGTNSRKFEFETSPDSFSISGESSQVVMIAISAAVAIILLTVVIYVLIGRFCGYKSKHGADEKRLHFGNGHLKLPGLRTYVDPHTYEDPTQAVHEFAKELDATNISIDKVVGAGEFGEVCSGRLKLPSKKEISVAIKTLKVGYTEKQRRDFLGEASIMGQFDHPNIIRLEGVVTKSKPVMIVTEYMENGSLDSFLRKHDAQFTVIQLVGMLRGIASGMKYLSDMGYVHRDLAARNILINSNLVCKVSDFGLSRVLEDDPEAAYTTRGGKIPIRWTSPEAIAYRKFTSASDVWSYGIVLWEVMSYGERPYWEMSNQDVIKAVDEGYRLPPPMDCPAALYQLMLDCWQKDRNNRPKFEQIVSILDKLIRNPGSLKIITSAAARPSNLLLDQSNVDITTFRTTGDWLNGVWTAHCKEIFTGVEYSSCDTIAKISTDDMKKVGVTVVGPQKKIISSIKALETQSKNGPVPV

A further experiment deals with T2, EphB4(h) (Homo sapiens, UniProt P54760).
T2 construct: purchased Millipore KinaseProfiler
T2 sequence (P54760 16-987): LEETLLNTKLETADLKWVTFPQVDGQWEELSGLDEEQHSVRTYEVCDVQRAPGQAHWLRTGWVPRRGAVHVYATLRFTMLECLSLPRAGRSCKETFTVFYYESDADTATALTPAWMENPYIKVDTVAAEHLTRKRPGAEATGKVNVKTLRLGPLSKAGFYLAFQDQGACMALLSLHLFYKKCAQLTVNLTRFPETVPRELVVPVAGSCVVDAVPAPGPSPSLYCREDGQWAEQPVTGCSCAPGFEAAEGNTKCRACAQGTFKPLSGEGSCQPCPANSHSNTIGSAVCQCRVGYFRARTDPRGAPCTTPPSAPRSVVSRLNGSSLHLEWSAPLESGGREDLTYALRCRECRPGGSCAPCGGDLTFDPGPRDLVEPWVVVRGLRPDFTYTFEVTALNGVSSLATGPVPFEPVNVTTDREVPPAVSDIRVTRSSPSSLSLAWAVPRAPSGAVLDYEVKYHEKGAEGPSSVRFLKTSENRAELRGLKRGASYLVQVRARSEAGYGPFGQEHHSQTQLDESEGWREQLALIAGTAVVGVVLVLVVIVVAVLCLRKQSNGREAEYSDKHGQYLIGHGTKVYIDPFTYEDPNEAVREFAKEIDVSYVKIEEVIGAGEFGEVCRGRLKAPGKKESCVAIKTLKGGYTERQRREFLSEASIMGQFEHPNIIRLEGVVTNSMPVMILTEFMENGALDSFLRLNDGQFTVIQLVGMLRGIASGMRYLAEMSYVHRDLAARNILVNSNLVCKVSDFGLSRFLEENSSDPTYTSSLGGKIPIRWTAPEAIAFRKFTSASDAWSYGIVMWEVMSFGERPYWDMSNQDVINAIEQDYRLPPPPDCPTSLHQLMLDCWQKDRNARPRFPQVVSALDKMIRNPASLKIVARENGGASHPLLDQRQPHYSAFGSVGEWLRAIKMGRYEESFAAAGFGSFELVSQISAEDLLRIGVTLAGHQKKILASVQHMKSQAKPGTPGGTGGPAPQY

A further experiment has as its target T3, Flt4(h) (Homo sapiens, UniProt P35916).
T3 construct: purchased Millipore KinaseProfiler

The target of the next experiment is T4, mTOR(h) (Homo sapiens, UniProt P42345).
T4 construct: purchased Millipore KinaseProfiler

Another experiment concerns the target T5, NLK(h) (Homo sapiens, UniProt Q9UBE8).
T5 construct: purchased Millipore KinaseProfiler
T5 sequence (Q9UBE8 1-527): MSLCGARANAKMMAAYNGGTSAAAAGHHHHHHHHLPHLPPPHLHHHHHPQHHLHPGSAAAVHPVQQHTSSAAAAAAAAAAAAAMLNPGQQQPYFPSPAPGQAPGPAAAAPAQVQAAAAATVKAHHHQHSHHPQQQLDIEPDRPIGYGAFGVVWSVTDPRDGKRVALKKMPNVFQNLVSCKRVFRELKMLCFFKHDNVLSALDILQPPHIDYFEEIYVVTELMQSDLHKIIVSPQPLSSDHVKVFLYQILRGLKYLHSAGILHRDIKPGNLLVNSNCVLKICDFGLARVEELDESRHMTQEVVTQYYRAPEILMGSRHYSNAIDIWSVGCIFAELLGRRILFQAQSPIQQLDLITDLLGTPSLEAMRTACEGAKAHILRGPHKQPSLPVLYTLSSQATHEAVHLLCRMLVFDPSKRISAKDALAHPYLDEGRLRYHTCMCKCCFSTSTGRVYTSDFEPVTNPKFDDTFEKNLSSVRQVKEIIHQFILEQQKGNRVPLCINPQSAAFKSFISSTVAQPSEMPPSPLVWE

The next experiment has as its target T6, PDGFRα(V561D)(h) (Homo sapiens, UniProt P16234, V561D).
T6 construct: purchased Millipore KinaseProfiler

A further experiment addresses T7, PTK5(h) (Homo sapiens, UniProt P42685).
T7 construct: purchased Millipore KinaseProfiler

For another experiment, the target named is T8, Ret(V804M)(h) (Homo sapiens, UniProt P07949, V804M).
T8 construct: purchased Millipore KinaseProfiler
T8 sequence (P07949 29-1114 V804M): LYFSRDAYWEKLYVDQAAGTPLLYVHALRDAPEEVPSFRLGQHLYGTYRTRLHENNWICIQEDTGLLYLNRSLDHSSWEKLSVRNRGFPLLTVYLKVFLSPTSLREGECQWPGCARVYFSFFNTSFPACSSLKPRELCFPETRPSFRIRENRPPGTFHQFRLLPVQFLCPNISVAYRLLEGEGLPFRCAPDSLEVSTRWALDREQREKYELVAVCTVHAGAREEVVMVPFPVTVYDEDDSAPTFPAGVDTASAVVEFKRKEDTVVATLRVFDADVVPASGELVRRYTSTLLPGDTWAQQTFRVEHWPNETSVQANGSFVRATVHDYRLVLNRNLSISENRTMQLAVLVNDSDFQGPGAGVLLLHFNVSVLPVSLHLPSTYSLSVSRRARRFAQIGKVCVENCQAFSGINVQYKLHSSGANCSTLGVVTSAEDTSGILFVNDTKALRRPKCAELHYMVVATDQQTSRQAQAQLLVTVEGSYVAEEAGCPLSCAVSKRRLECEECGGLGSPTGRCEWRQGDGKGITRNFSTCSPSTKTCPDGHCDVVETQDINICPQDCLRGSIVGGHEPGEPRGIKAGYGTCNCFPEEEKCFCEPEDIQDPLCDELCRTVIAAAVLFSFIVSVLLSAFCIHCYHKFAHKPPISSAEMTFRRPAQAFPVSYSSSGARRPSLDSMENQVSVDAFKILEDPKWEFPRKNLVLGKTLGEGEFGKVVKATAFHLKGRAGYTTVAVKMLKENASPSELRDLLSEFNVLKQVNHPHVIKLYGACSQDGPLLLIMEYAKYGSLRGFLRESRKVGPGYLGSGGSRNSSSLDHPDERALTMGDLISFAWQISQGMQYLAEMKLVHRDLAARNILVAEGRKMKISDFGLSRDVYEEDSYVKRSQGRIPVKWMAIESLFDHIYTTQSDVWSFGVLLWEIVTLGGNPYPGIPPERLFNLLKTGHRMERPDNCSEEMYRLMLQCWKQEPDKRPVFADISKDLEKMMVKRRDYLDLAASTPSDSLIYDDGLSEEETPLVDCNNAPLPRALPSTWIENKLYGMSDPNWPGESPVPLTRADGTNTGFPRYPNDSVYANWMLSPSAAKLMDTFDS

Another experiment deals with T9, WNK2(h) (Homo sapiens, UniProt Q9Y3S1).
T9 construct: purchased Millipore KinaseProfiler
T9 sequence (Q9Y3S1 whole entry): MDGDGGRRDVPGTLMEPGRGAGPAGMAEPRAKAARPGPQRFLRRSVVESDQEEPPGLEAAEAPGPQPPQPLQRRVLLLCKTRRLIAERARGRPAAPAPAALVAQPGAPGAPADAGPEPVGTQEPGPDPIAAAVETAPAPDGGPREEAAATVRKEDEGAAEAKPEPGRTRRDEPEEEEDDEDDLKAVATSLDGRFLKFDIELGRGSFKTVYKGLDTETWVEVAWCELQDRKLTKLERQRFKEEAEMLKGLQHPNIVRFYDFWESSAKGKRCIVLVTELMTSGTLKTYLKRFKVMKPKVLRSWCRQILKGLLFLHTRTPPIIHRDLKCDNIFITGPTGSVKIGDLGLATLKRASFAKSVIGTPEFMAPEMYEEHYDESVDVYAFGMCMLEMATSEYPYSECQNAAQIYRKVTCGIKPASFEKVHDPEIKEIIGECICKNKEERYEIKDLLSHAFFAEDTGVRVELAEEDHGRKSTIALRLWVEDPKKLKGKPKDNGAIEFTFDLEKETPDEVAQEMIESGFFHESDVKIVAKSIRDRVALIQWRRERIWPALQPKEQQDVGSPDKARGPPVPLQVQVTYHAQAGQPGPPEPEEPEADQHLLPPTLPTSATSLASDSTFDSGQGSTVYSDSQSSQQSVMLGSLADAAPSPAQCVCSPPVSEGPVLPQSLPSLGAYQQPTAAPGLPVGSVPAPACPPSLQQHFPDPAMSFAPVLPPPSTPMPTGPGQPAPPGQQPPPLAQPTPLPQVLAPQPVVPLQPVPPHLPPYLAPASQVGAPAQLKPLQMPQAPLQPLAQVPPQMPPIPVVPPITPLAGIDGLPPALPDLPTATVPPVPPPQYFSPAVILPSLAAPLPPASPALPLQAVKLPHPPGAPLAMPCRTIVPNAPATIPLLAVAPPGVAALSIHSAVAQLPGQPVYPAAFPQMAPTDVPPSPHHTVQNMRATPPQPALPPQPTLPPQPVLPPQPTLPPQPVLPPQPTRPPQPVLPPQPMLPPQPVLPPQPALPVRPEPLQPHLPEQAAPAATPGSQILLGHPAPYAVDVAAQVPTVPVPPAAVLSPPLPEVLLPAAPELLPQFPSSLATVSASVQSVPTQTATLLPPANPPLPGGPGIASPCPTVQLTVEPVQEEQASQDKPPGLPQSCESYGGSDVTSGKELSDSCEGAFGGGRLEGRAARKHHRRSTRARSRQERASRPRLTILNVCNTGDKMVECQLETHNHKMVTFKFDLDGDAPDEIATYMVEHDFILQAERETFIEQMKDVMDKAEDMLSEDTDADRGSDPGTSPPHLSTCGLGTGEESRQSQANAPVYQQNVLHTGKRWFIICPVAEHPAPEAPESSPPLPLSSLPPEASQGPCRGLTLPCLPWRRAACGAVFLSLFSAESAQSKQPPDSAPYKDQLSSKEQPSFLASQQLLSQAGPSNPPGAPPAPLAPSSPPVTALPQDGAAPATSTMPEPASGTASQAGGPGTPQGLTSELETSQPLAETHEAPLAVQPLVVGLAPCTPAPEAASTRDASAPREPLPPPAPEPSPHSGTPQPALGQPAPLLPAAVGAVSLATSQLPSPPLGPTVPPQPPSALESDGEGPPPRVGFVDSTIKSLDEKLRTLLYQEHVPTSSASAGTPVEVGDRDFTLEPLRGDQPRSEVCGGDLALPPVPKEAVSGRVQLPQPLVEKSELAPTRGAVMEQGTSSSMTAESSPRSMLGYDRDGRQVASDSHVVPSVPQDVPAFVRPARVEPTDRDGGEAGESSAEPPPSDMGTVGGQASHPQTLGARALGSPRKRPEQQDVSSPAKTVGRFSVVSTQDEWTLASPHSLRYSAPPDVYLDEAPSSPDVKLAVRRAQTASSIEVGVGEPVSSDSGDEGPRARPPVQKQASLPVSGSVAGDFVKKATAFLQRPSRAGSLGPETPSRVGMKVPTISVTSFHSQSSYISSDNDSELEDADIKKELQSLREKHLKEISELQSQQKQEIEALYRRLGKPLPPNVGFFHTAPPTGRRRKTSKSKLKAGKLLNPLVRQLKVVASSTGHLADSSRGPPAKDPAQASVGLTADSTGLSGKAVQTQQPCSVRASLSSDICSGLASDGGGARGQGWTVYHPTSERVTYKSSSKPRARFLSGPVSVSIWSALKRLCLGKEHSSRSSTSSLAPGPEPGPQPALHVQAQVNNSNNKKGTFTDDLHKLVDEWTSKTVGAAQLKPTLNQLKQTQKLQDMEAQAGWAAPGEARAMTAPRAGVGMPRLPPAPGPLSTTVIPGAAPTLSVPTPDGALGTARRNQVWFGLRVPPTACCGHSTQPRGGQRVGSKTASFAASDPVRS

T3 sequence (P35916 25-1363): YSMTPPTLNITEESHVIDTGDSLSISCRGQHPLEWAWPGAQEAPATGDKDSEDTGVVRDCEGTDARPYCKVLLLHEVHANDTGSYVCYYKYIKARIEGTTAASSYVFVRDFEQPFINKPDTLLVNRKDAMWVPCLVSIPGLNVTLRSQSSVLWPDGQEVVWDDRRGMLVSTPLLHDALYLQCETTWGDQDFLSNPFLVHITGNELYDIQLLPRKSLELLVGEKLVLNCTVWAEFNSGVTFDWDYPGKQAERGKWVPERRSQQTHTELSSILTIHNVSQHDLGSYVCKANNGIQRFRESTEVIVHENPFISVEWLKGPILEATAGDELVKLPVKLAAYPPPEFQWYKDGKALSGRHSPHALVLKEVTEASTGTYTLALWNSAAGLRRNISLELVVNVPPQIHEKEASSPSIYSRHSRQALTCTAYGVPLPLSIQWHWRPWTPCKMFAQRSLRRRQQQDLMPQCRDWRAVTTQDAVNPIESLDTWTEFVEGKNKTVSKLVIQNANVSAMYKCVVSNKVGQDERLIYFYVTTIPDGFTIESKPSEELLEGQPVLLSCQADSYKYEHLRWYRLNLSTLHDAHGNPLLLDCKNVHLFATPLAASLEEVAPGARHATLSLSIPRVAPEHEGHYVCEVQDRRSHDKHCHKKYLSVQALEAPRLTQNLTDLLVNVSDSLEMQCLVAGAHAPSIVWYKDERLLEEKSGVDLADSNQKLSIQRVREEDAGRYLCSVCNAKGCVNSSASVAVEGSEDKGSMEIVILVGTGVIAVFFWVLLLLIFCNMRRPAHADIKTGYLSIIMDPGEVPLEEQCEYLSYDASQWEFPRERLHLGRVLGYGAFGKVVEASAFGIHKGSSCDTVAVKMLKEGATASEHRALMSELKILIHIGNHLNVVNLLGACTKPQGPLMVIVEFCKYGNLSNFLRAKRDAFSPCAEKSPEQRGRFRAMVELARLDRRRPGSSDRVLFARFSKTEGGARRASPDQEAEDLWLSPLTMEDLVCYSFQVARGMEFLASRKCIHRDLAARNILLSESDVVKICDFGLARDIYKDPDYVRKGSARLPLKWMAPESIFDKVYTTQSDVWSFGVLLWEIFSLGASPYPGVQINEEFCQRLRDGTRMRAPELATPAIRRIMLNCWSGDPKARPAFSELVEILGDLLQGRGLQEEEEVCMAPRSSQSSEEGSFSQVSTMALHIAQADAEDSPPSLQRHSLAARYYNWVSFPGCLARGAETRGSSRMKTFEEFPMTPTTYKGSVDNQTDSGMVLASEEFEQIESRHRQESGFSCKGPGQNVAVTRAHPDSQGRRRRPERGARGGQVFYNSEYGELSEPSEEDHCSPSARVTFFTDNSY

Take `Cn1ncc(Cl)c1-c1cc(C(=O)N[C@H](CN)Cc2cccc(F)c2)sc1Cl` [GSK2110183]: the inhibition at 0.5 µM against EphA3(h) is 1%; on EphB4(h), 0%; on Flt4(h) it was 4%; against mTOR(h) it was 17%; at NLK(h), -8%; on PDGFRα(V561D)(h), 2%. For the same compound, the results for the inhibition at 0.5 µM on PTK5(h), on Ret(V804M)(h) and against WNK2(h) were 4%, 5% and 1%, respectively. In addition, the inhibition at 10 µM on EphA3(h) was 11%; on EphB4(h), 10%; on Flt4(h) it was 21%; against mTOR(h) it was -9%; against NLK(h) it was 32%; against PDGFRα(V561D)(h), 26%. The inhibition at 10 µM against PTK5(h) was determined as 18%; at Ret(V804M)(h) it was 26%; against WNK2(h) it was 26%.

As to `Cn1ncc(Cl)c1-c1cc(C(=O)N[C@H](CN)Cc2ccc(F)c(F)c2)oc1Cl` [GSK2141795], the inhibition at 0.5 µM at EphA3(h) (0.5 µM, read-out: % Inhibition) is -7%; on EphB4(h) (0.5 µM, read-out: % Inhibition), 5%; at Flt4(h) (0.5 µM, read-out: % Inhibition), -6%; at mTOR(h) (0.5 µM, read-out: % Inhibition), -16%; at NLK(h) (0.5 µM, read-out: % Inhibition), 4%; at PDGFRα(V561D)(h) (0.5 µM, read-out: % Inhibition), -5%. The inhibition at 0.5 µM is 11% on PTK5(h) (0.5 µM, read-out: % Inhibition); -2% on Ret(V804M)(h) (0.5 µM, read-out: % Inhibition); -12% at WNK2(h) (0.5 µM, read-out: % Inhibition). Also, the inhibition at 10 µM at EphA3(h) (10 µM, read-out: % Inhibition) was 21%; at EphB4(h) (10 µM, read-out: % Inhibition), 5%; at Flt4(h) (10 µM, read-out: % Inhibition) it was 23%; at mTOR(h) (10 µM, read-out: % Inhibition), -4%; at NLK(h) (10 µM, read-out: % Inhibition), 46%; at PDGFRα(V561D)(h) (10 µM, read-out: % Inhibition), 14%. Further, the inhibition at 10 µM at PTK5(h) (10 µM, read-out: % Inhibition) was 70%; on Ret(V804M)(h) (10 µM, read-out: % Inhibition), 25%; on WNK2(h) (10 µM, read-out: % Inhibition) it was 3%.
